The term pIC50 denotes the IC50 on a negative log10 scale, so that one unit is a factor of ten.

For three molecules, Activity and IC50 results are on record in ChEMBL document CHEMBL4699509, “Asaroidoxazines from the Roots of Asarum asaroides Induce Apoptosis in Human Neuroblastoma Cells” (J Nat Prod, 2020).

The test system of experiment [1] is SH-SY5Y. The experiment can be described thus: Cytotoxicity against human SH-SY5Y cells assessed as reduction in cell viability by CCK8 assay. The class given is functional, cell-based.
The subject of experiment [2] is SH-SY5Y. Description: Induction of apoptosis in human SH-SY5Y cells assessed as nuclear condensation at 1 uM by Hoechst 33342 staining based inverted fluorescent microscopic method (reference value: 2.1%). Format: functional.
Experiment [3] concerns SH-SY5Y. Description: Induction of apoptosis in human SH-SY5Y cells assessed as nuclear condensation at 30 uM by Hoechst 33342 staining based inverted fluorescent microscopic method (reference value: 2.1%). Format: functional.
Experiment [4] has as its system SH-SY5Y. The experiment can be described thus: Induction of apoptosis in human SH-SY5Y cells assessed as nuclear fragmentation at 1 to 30 uM by Hoechst 33342 staining based inverted fluorescent microscopic method. The class given is functional, cell-based. As to conditions: dose microM 1-30.
The test system of experiment [5] is SH-SY5Y. Description: Induction of apoptosis in human SH-SY5Y cells assessed as decrease in ATP level at 30 uM by CellTiter-Glo assay relative to control. Format: functional. Also on record: scale not given: the % may be the effect or the level left. (In general: Cellular ATP, detected with luciferase, serves as a proxy for viable cell number.)
Experiment [6] relates to SH-SY5Y. The experiment can be described thus: Induction of apoptosis in human SH-SY5Y cells assessed as decrease in ATP level at 1 uM by CellTiter-Glo assay relative to control. Format: functional. Also on record: scale not given: the % may be the effect or the level left.
Experiment [7] deals with SH-SY5Y. Description: Induction of apoptosis in human SH-SY5Y cells assessed as increase in caspace-3/7 expression at 1 to 30 uM after 12 hrs by Caspase-Glo assay. Format: functional, cell-based. The settings on record: dose microM 1-30, time 12.0 hrs.
Experiment [8] has as its system SH-SY5Y. Description: Induction of apoptosis in human SH-SY5Y cells assessed as nuclear condensation at 1 to 30 uM by Hoechst 33342 staining based inverted fluorescent microscopic method. The class given is functional, cell-based. As to conditions: dose microM 1-30.

pIC50: −log10 of the molar value. Activity calls are given as the source filed them. The rule behind the calls is not given here.

For the molecule `COc1cc(OC)c2c(c1)-c1c3c(cc4c(=O)onc(c14)[C@H]2SCC(N)=O)OCO3`, in experiment [1], the Activity entry is “Dose-dependent effect” and the pIC50 was 4.95.
In the case of `COc1ccc(OC)c2c1cc1c3c(cc4c(c32)OCO4)C(=O)N1`, in experiment [1], the Activity entry was “Dose-dependent effect” and the negative logarithm of the IC50 (pIC50) was 4.67.
For the molecule `COc1ccc(OC)c2c1-c1c3c(cc4c(=O)onc(c14)[C@H]2SCC(N)=O)OCO3`, the Activity is 36.8% in experiment [2]; 70.9% in experiment [3]; 51.4% in experiment [5]; 57.8% in experiment [6]; “Dose-dependent effect” in experiment [1]. Further, the outcome in experiment [4], in experiment [7] and in experiment [8] was Active. Moreover, the negative-log IC50 (pIC50) in experiment [1] was 5.57.
